Test results as given in patent publication US9670486B2, “RNAi-based method of screening and characterizing drug combinations” (Massachusetts Institute of Technology, priority 2011, dated 2017).

Legend:
[1] = tested on: Eμ-Myc;p19Arf−/− lymphoma cells; conditions: for single drug cell death: single drug concentration used in the 17AAG-CBL combination
[2] = tested on: Eμ-Myc;p19Arf−/− lymphoma cells; test: 8-shRNA signature (GFP competition) with probabilistic nearest neighbors and PCA analysis; assay type: cell-based, mouse; conditions: shDNAPKcs, LD80-90

Row | SMILES | single drug cell death [1] [%] | effect on 5-FU action [1] | cell death ([1]; leucovorin alone at 1 μM, lymphoma cells) | effect of diminution of DNAPKcs levels on drug response [2]
1 | C=CCNC1=C2C[C@@H](C)C[C@H](OC)[C@H](O)[C@@H](C)/C=C(\C)[C@H](OC(N)=O)[C@@H](OC)/C=C\C=C(/C)C(=O)NC(=CC1=O)C2=O [17AAG] | ~20 | – | – | –
2 | Nc1nc2c(c(=O)[nH]1)N(C=O)C(CNc1ccc(C(=O)N[C@@H](CCC(=O)O)C(=O)O)cc1)CN2 (stereo partly drawn) [leucovorin] | – | potentiated 5-FU action | no cell death | –
3 | COc1cccc2c1C(=O)c1c(O)c3c(c(O)c1C2=O)C[C@@](O)(C(=O)CO)C[C@@H]3O[C@H]1C[C@H](N)[C@H](O)[C@H](C)O1 [Dox, doxorubicin] | – | – | – | sensitivity
4 | O=C(O)CCCc1ccc(N(CCCl)CCCl)cc1 [CBL, Chlorambucil] | ~20 | – | – | resistance
